What was measured:
[1] = molecular target: T1, Long-chain-fatty-acid--CoA ligase 1 (Homo sapiens, UniProt P33121); assay: Inhibition of recombinant human ACSL1 assessed as reduction in […] prodution incubated for 90 mins in presence of Coenzyme A, ATP and MgCl2 by MALDI-TOF MS analysis
T1 sequence (P33121 whole entry): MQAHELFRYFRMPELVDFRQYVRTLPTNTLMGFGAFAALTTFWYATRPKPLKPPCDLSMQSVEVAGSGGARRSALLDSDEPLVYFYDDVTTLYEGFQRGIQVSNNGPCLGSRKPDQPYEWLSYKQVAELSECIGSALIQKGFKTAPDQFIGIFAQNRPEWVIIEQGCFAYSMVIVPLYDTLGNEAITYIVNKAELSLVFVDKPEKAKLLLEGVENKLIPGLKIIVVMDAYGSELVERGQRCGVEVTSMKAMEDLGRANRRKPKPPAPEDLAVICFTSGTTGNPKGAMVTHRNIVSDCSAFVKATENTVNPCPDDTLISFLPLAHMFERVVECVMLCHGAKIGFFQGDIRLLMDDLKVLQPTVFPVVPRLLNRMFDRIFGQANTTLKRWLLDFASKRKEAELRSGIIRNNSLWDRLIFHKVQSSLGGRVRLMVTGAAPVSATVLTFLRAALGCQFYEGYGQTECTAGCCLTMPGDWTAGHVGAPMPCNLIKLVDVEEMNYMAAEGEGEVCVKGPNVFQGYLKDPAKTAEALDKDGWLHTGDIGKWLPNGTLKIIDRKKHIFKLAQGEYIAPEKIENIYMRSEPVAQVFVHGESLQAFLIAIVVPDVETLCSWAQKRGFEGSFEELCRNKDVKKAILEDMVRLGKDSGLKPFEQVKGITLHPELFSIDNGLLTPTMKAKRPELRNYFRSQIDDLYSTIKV

[2] = molecular target: T2, Long-chain-fatty-acid--CoA ligase 1 (Mus musculus, UniProt P41216); assay: Inhibition of recombinant mouse ACSL1 assessed as reduction in […] prodution incubated for 90 mins in presence of Coenzyme A, ATP and MgCl2 by MALDI-TOF MS analysis
T2 sequence (P41216 whole entry): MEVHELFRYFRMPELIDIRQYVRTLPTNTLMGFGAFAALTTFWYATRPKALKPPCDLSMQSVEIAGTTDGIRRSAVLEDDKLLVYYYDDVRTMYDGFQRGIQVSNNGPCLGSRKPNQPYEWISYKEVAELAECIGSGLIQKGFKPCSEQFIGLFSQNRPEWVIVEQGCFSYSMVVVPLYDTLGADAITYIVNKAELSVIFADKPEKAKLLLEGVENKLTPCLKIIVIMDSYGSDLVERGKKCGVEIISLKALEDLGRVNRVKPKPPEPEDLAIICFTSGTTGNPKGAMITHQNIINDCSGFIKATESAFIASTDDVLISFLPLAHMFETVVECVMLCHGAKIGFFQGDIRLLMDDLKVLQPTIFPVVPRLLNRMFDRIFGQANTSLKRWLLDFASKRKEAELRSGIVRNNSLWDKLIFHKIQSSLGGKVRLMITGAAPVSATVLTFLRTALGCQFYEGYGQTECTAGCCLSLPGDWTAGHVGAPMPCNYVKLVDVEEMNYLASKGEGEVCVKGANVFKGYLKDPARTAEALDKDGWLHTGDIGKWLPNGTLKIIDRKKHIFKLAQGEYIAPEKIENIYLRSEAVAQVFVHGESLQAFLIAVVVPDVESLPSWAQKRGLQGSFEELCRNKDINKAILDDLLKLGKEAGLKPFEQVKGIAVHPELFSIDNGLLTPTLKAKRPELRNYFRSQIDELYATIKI

[3] = molecular target: T1, Long-chain-fatty-acid--CoA ligase 1; assay: Inhibition of ACSL1 (unknown origin) assessed as reduction in […] prodution incubated for 90 mins in presence of Coenzyme A, ATP and MgCl2 by MALDI-TOF MS analysis
[4] = molecular target: T3, Long-chain-fatty-acid--CoA ligase 6 (Homo sapiens, UniProt Q9UKU0); assay: Inhibition of recombinant human ACSL6 assessed as reduction in […] prodution incubated for 60 mins in presence of Coenzyme A, ATP and MgCl2 by MALDI-TOF MS analysis
T3 sequence (Q9UKU0 whole entry): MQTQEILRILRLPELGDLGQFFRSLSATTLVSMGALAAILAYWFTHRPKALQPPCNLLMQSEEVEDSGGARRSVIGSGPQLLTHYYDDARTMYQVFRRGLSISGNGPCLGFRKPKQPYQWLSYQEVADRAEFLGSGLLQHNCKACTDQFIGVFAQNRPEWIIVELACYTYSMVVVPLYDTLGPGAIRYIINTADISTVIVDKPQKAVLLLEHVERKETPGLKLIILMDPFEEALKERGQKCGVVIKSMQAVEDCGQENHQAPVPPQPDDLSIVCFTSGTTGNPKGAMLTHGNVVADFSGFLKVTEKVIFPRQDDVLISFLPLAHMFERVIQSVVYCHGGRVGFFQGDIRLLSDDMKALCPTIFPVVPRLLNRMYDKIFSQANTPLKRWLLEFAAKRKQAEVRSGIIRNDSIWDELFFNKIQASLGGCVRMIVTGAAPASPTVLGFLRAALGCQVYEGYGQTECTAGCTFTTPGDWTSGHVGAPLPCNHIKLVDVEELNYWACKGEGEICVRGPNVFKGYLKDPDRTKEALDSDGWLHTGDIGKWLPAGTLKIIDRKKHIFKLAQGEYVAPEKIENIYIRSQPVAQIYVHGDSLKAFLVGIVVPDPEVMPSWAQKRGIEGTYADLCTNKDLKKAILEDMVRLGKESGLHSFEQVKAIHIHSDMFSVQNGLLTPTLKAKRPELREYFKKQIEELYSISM

[5] = molecular target: T4, Long-chain-fatty-acid--CoA ligase 5 (Homo sapiens, UniProt Q9ULC5); assay: Inhibition of recombinant human ACSL5 assessed as reduction in […] prodution incubated for 90 mins in presence of Coenzyme A, ATP and MgCl2 by MALDI-TOF MS analysis
T4 sequence (Q9ULC5 whole entry): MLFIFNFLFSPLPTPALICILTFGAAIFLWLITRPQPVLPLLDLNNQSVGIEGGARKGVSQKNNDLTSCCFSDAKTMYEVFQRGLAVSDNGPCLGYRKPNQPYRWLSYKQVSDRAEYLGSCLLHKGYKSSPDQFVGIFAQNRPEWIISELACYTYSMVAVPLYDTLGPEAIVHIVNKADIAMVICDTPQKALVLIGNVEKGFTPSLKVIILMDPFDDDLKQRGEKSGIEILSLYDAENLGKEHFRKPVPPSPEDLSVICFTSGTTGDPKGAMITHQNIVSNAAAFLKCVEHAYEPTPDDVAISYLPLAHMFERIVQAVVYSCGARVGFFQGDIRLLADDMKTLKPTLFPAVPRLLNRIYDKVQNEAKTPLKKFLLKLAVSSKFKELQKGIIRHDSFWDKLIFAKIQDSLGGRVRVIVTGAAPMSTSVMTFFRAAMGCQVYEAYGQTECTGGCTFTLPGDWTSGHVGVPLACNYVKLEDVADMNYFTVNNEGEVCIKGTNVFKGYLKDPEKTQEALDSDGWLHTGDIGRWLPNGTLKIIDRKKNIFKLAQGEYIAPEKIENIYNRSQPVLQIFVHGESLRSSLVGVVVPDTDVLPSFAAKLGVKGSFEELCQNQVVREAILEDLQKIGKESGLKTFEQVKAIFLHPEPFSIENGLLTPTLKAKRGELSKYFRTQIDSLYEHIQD

[6] = molecular target: Fatty acid CoA ligase Acsl3 (Homo sapiens, UniProt O95573); assay: Inhibition of recombinant human ACSL3 assessed as reduction in […] prodution incubated for 90 mins in presence of Coenzyme A, ATP and MgCl2 by MALDI-TOF MS analysis
[7] = molecular target: Long-chain-fatty-acid--CoA ligase 4 (Homo sapiens, UniProt O60488); assay: Inhibition of recombinant human ACSL4 assessed as reduction in […] prodution incubated for 120 mins in presence of Coenzyme A, ATP and MgCl2 by MALDI-TOF MS analysis
Long-chain-fatty-acid--CoA ligase 4, sequence (O60488 whole entry): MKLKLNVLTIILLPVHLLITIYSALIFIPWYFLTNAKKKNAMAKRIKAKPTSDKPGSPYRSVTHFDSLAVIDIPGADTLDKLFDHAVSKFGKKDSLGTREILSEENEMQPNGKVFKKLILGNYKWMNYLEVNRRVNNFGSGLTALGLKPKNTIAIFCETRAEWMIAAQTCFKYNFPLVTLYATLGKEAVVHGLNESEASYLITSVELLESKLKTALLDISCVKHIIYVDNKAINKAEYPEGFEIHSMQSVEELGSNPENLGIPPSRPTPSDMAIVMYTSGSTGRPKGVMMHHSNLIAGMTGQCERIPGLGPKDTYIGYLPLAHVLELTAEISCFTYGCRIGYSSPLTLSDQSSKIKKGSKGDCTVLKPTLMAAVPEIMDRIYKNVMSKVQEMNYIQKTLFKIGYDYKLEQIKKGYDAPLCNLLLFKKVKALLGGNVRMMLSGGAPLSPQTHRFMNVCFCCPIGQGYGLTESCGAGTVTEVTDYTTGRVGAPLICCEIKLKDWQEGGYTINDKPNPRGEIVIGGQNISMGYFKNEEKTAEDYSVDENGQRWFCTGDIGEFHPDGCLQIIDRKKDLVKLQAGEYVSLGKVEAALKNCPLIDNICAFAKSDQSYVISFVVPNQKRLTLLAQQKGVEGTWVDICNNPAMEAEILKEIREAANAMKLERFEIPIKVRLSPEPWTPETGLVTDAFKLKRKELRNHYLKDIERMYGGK

Fatty acid CoA ligase Acsl3, sequence (O95573 whole entry): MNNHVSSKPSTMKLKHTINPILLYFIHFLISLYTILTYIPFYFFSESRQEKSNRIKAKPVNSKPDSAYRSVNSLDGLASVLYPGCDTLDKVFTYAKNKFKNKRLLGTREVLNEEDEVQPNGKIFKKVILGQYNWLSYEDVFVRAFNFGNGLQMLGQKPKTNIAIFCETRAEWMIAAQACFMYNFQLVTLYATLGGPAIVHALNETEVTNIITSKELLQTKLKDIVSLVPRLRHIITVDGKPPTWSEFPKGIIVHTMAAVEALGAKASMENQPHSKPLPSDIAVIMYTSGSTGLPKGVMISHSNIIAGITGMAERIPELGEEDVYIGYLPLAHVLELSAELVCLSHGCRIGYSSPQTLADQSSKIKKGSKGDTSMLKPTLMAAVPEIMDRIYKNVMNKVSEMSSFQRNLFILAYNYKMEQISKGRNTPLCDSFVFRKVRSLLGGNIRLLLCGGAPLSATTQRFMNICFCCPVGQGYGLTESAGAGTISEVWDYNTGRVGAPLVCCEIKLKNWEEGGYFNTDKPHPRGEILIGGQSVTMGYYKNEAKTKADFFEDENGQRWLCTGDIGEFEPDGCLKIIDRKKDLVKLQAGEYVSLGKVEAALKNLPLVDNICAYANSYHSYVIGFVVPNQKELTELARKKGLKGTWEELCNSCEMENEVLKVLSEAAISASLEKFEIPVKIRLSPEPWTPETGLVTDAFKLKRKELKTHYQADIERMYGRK

SMILES	IC50 [1] [nM]	IC50 [2] [nM]	further results
Cc1cccc(Cc2nc3cc(O[C@H]4CC[C@@H](C(=O)O)CC4)ccc3o2)c1	39	140	
Cc1cccc(Cc2nc3cc(O[C@H]4CC[C@@H](C(=O)O)CC4)cc(Cl)c3n2C)c1	28	170	
Cc1cccc(C(=O)c2nc3cc(O[C@H]4CC[C@@H](C(=O)O)CC4)ccc3n2C)c1	> 200000		
Cc1cccc(Oc2nc3cc(O[C@H]4CC[C@@H](C(=O)O)CC4)ccc3n2C)c1	78000	21000	
Cn1c(Cc2ccc3c(c2)OCC3)nc2cc(O[C@H]3CC[C@@](F)(c4nnn[nH]4)CC3)ccc21	3	15	
Cn1c(Cc2cccnc2)nc2cc(O[C@H]3CC[C@@H](C(=O)O)CC3)ccc21	141000	> 200000	
O=C(O)C[C@H]1CC[C@@H](Oc2ccc3oc4ccccc4c(=O)c3c2)CC1			IC50 [3]: 18000 nM
Cc1cccc(Cc2cc3cc(O[C@H]4CC[C@@H](C(=O)O)CC4)ccc3n2C)c1	400	400	
O=C(O)c1ccc(Oc2ccc3oc4ccccc4c(=O)c3c2)cc1			IC50 [3]: > 200000 nM
Cc1ccc(Cc2nc3cc(O[C@H]4CC[C@@H](C(=O)O)CC4)ccc3n2C)cc1	150	80	
Cc1cccc(COc2nc3cc(O[C@H]4CC[C@@H](C(=O)O)CC4)ccc3n2C)c1	17000	8100	
Cc1cccc(Cc2nc3ccc(O[C@H]4CC[C@@H](C(=O)O)CC4)cc3n2C)c1	> 200000	> 200000	
Cc1cccc(Cc2nc3cc(O[C@H]4CC[C@@](F)(c5nnn[nH]5)CC4)ccc3n2C)c1	13	13	
O=c1c2ccccc2oc2ccc(O[C@H]3CC[C@H](C(=O)O)CC3)cc12	240	1400	IC50 [3]: > 200000 nM
O=C(O)[C@H]1CC[C@@H](Oc2ccc3oc(-c4ccccc4)nc3c2)CC1	4400	59000	
O=c1c2ccccc2oc2ccc(OC[C@H]3CC[C@H](C(=O)O)CC3)cc12			IC50 [3]: > 200000 nM
Cn1c(Cc2cccc(C#N)c2)nc2cc(O[C@H]3CC[C@@H](C(=O)O)CC3)ccc21	51000	22000	
Cc1cccc(Cc2nc3cc(O[C@H]4CC[C@@H](c5nnn[nH]5)CC4)ccc3n2C)c1	34	25	
O=C(O)CCCCOc1ccc2oc3ccccc3c(=O)c2c1			IC50 [4]: 93000 nM; IC50 [3]: 1700 nM; IC50 [5]: > 200000 nM; IC50 [6]: > 200000 nM; IC50 [7]: > 200000 nM

SMILES	IC50 [1] [nM]	IC50 [2] [nM]	further results
Cc1cccc(Cc2nc3cc(O[C@H]4CC[C@@H](C(=O)O)CC4)ncc3n2C)c1	41000	46000	
Cn1c(Cc2ccc3c(c2)OCC3)nc2cc(O[C@H]3CC[C@@H](C(=O)O)CC3)ccc21	13	36	
O=C(O)CCCCCCOc1ccc2oc3ccccc3c(=O)c2c1			IC50 [4]: 6200 nM; IC50 [3]: 310 nM; IC50 [5]: > 200000 nM; IC50 [6]: 114000 nM; IC50 [7]: > 200000 nM
O=c1c2ccccc2oc2ccc(O[C@H]3CC[C@@H](C(=O)O)CC3)cc12			IC50 [4]: 70000 nM; IC50 [3]: 240 nM; IC50 [5]: > 200000 nM; IC50 [6]: 69000 nM; IC50 [7]: > 200000 nM
O=c1c2ccccc2oc2ccc(OC[C@H]3CC[C@@H](C(=O)O)CC3)cc12			IC50 [3]: > 200000 nM
Cc1cccc(Cc2nc3cc(O[C@H]4CC[C@@H](C(=O)O)CC4)c(Cl)cc3n2C)c1	47	100	
Cc1cccc(Cc2c(C(N)=O)c3cc(O[C@H]4CC[C@@H](C(=O)O)CC4)ccc3n2C)c1	600	440	
Cc1cccc(Cc2nc3cc(O[C@H]4CC[C@@H](c5noc(=O)[nH]5)CC4)ccc3n2C)c1	47	100	
Cn1c(Cc2cccc(C(F)(F)F)c2)nc2cc(O[C@H]3CC[C@@H](C(=O)O)CC3)ccc21	190	86	
Cc1cccc(Cc2nc3cc(O[C@H]4CC[C@@H](C(=O)O)CC4)ccc3n2C(C)C)c1	> 200000	> 200000	
O=C(O)[C@H]1CC[C@@H](Oc2ccc3c(c2)Cc2ccccc2O3)CC1	4600	4000	
Cc1cccc(Cc2c(C#N)c3cc(O[C@H]4CC[C@@H](C(=O)O)CC4)ccc3n2C)c1	1900	600	
Cc1cccc(Cc2nc3nc(O[C@H]4CC[C@@H](C(=O)O)CC4)ccc3n2C)c1	44	79	
O=C(O)C[C@H]1CC[C@H](Oc2ccc3oc4ccccc4c(=O)c3c2)CC1			IC50 [3]: > 200000 nM
Cc1cccc(Cc2nc3cc(O[C@H]4CC[C@@H](C(N)=O)CC4)ccc3n2C)c1	950	190	
Cc1ccccc1Cc1nc2cc(O[C@H]3CC[C@@H](C(=O)O)CC3)ccc2n1C	7800	5400	
Cc1cccc(Cc2nc3c(Cl)c(O[C@H]4CC[C@@H](C(=O)O)CC4)ccc3n2C)c1	61000	56000	
Cc1cccc(Cn2nc3cc(O[C@H]4CC[C@@H](C(=O)O)CC4)ccc3c2C)c1	45	53	

— ChEMBL document CHEMBL4673346, “Discovery of a benzimidazole series as the first highly potent and selective ACSL1 inhibitors” (Bioorg Med Chem Lett, 2021)
